Source: PubChem BioAssay (NCI)
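All cell lines were grown in 96-well plates and treated with compound for 48 hours. TGI is the concentration that stops growth completely.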

How the values were obtained:
Test in all cases: DTP human tumour cell line panel, 48 h
UACC-257 melanoma = system: UACC-257 melanoma
786-0 renal = system: 786-0 renal
LXFL 529 NSCLC = system: LXFL 529 NSCLC
HCT-15 colon = system: HCT-15 colon
RPMI-8226 leukemia = system: RPMI-8226 leukemia
XF 498 CNS = system: XF 498 CNS
SK-OV-3 ovarian = system: SK-OV-3 ovarian
K-562 leukemia = system: K-562 leukemia
DMS 114 small cell lung = system: DMS 114 small cell lung
SNB-78 CNS = system: SNB-78 CNS
KM12 colon = system: KM12 colon
OVCAR-4 ovarian = system: OVCAR-4 ovarian
TK-10 renal = system: TK-10 renal
RXF 393 renal = system: RXF 393 renal
SK-MEL-5 melanoma = system: SK-MEL-5 melanoma
LOX IMVI melanoma = system: LOX IMVI melanoma
SNB-19 CNS = system: SNB-19 CNS
UACC-62 melanoma = system: UACC-62 melanoma
SF-539 CNS = system: SF-539 CNS
NCI-H23 lung = system: NCI-H23 lung
HCT-116 colon = system: HCT-116 colon
NCI-H226 lung = system: NCI-H226 lung
MALME-3M melanoma = system: MALME-3M melanoma
SK-MEL-28 melanoma = system: SK-MEL-28 melanoma
HL-60(TB) leukemia = system: HL-60(TB) leukemia
SK-MEL-2 melanoma = system: SK-MEL-2 melanoma
UO-31 renal = system: UO-31 renal
SR leukemia = system: SR leukemia
OVCAR-5 ovarian = system: OVCAR-5 ovarian
OVCAR-8 ovarian = system: OVCAR-8 ovarian
NCI-H522 lung = system: NCI-H522 lung
NCI-H460 lung = system: NCI-H460 lung
IGROV1 ovarian = system: IGROV1 ovarian
A549 NSCLC = system: A549 NSCLC
SF-295 CNS = system: SF-295 CNS
HOP-18 NSCLC = system: HOP-18 NSCLC
SN12C renal = system: SN12C renal
HCC-2998 colon = system: HCC-2998 colon
ACHN renal = system: ACHN renal
M19-MEL melanoma = system: M19-MEL melanoma
EKVX NSCLC = system: EKVX NSCLC
DLD-1 colon = system: DLD-1 colon
OVCAR-3 ovarian = system: OVCAR-3 ovarian
M14 melanoma = system: M14 melanoma
HT29 colon = system: HT29 colon
U251 CNS = system: U251 CNS
HOP-62 NSCLC = system: HOP-62 NSCLC
CAKI-1 renal = system: CAKI-1 renal
MOLT-4 leukemia = system: MOLT-4 leukemia
CCRF-CEM leukemia = system: CCRF-CEM leukemia
SF-268 CNS = system: SF-268 CNS
SW-620 colon = system: SW-620 colon
HOP-92 NSCLC = system: HOP-92 NSCLC
RXF-631 renal = system: RXF-631 renal
SNB-75 CNS = system: SNB-75 CNS
COLO 205 colon = system: COLO 205 colon
A498 renal = system: A498 renal
DMS 273 small cell lung = system: DMS 273 small cell lung
KM20L2 colon = system: KM20L2 colon

Measured: TGI

O=C1C2Nc3ccccc3SC2C(=O)N1c1ccccc1C(F)(F)F (stereo unspecified)
65.5 µM: HCT-15 colon
60.6 µM: OVCAR-3 ovarian
75.8 µM: M14 melanoma
23.7 µM: RXF 393 renal
28.1 µM: HL-60(TB) leukemia
35.7 µM: HCC-2998 colon
46.2 µM: SF-295 CNS
53.6 µM: SNB-78 CNS
53.2 µM: XF 498 CNS
56.3 µM: NCI-H522 lung
41 µM: SF-539 CNS
45.2 µM: U251 CNS
> 100 µM: UACC-257 melanoma | LXFL 529 NSCLC | RPMI-8226 leukemia | SK-OV-3 ovarian | K-562 leukemia | DMS 114 small cell lung | KM12 colon | OVCAR-4 ovarian | TK-10 renal | SK-MEL-5 melanoma | LOX IMVI melanoma | SNB-19 CNS | UACC-62 melanoma | HCT-116 colon | NCI-H226 lung | MALME-3M melanoma | SK-MEL-28 melanoma | SK-MEL-2 melanoma | UO-31 renal | SR leukemia | OVCAR-5 ovarian | OVCAR-8 ovarian | NCI-H460 lung | IGROV1 ovarian | A549 NSCLC | HOP-18 NSCLC | ACHN renal | M19-MEL melanoma | EKVX NSCLC | DLD-1 colon | HT29 colon | HOP-62 NSCLC | CAKI-1 renal | MOLT-4 leukemia | CCRF-CEM leukemia | SF-268 CNS | SW-620 colon | HOP-92 NSCLC
68.5 µM: 786-0 renal
60.3 µM: NCI-H23 lung
78.2 µM: SN12C renal

O=[N+]([O-])c1cccc(C2=NOC3C4CCC(C4)C23)c1 (stereo unspecified)
> 100 µM: UACC-257 melanoma | 786-0 renal | LXFL 529 NSCLC | HCT-15 colon | RPMI-8226 leukemia | SK-OV-3 ovarian | DMS 114 small cell lung | KM12 colon | RXF-631 renal | OVCAR-4 ovarian | TK-10 renal | SK-MEL-5 melanoma | SNB-75 CNS | COLO 205 colon | SF-539 CNS | NCI-H23 lung | HCT-116 colon | NCI-H226 lung | MALME-3M melanoma | SK-MEL-28 melanoma | A498 renal | SK-MEL-2 melanoma | UO-31 renal | SR leukemia | OVCAR-5 ovarian | OVCAR-8 ovarian | NCI-H522 lung | NCI-H460 lung | IGROV1 ovarian | A549 NSCLC | SF-295 CNS | HOP-18 NSCLC | SN12C renal | HCC-2998 colon | ACHN renal | M19-MEL melanoma | DLD-1 colon | OVCAR-3 ovarian | M14 melanoma | HT29 colon | U251 CNS | DMS 273 small cell lung | HOP-62 NSCLC | MOLT-4 leukemia | SF-268 CNS | SW-620 colon | HOP-92 NSCLC

Cc1ccc(S(=O)(=O)c2c(N)n(CCN(C)C)c3nc4ccccc4nc23)cc1
> 100 µM: UACC-257 melanoma | 786-0 renal | LXFL 529 NSCLC | HCT-15 colon | RPMI-8226 leukemia | XF 498 CNS | SK-OV-3 ovarian | K-562 leukemia | DMS 114 small cell lung | SNB-78 CNS | KM12 colon | OVCAR-4 ovarian | TK-10 renal | SK-MEL-5 melanoma | SNB-19 CNS | SNB-75 CNS | COLO 205 colon | SF-539 CNS | NCI-H23 lung | HCT-116 colon | NCI-H226 lung | MALME-3M melanoma | SK-MEL-28 melanoma | HL-60(TB) leukemia | SK-MEL-2 melanoma | UO-31 renal | OVCAR-5 ovarian | OVCAR-8 ovarian | NCI-H460 lung | IGROV1 ovarian | A549 NSCLC | SF-295 CNS | HOP-18 NSCLC | SN12C renal | HCC-2998 colon | ACHN renal | M19-MEL melanoma | EKVX NSCLC | DLD-1 colon | OVCAR-3 ovarian | M14 melanoma | HT29 colon | U251 CNS | DMS 273 small cell lung | MOLT-4 leukemia | CCRF-CEM leukemia | SF-268 CNS | HOP-92 NSCLC
58.7 µM: NCI-H522 lung

CC(C)c1cc(OCC(O)CO)cc(C(C)C)c1 (stereo unspecified)
> 100 µM: UACC-257 melanoma | 786-0 renal | LXFL 529 NSCLC | HCT-15 colon | XF 498 CNS | SK-OV-3 ovarian | K-562 leukemia | DMS 114 small cell lung | SNB-78 CNS | KM12 colon | OVCAR-4 ovarian | TK-10 renal | RXF 393 renal | SK-MEL-5 melanoma | LOX IMVI melanoma | SNB-19 CNS | SNB-75 CNS | UACC-62 melanoma | COLO 205 colon | SF-539 CNS | NCI-H23 lung | HCT-116 colon | NCI-H226 lung | MALME-3M melanoma | SK-MEL-28 melanoma | KM20L2 colon | A498 renal | HL-60(TB) leukemia | SK-MEL-2 melanoma | UO-31 renal | SR leukemia | OVCAR-5 ovarian | OVCAR-8 ovarian | NCI-H522 lung | NCI-H460 lung | IGROV1 ovarian | A549 NSCLC | SF-295 CNS | HOP-18 NSCLC | SN12C renal | HCC-2998 colon | ACHN renal | M19-MEL melanoma | EKVX NSCLC | DLD-1 colon | OVCAR-3 ovarian | M14 melanoma | HT29 colon | U251 CNS | DMS 273 small cell lung | HOP-62 NSCLC | CAKI-1 renal | MOLT-4 leukemia | CCRF-CEM leukemia | SF-268 CNS | SW-620 colon | HOP-92 NSCLC
